According to the supplement of paper PMC10883282:
± gives the standard deviation of the averaged measurements.

Legend:
Test in all cases: relative viability vs DMSO control (72 h) (fraction); higher = more viable cells
RD = system: RD
Summary of the method: (§1)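 Sarcoma cell lines in 384-well plates, seeded to reach 80–90% confluence, were given compound after 24 h and kept 72 h at 37 °C, 5% CO2, with 0.1% DMSO vehicle and a 5 µM positive control. Relative viability came from ATPLite as percent growth, averaged over up to triplicate wells. On the rescaled values, 1 equals full and 0 equals none.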

VA-ES-BJ = system: VA-ES-BJ
Summary of the method: as §1

HT1080 = system: HT1080
Summary of the method: as §1

KHOS-NP = system: KHOS-NP
Summary of the method: as §1

RD-ES = system: RD-ES
Summary of the method: as §1

## CNC(=O)c1c(C)oc2cc(Oc3ncnc4cc(OC)c(OC)cc34)ccc12 [Fruquintinib]
RD; 0.00017 µM
  relative viability: 1.03 ± 0.052
RD; 0.00051 µM
  relative viability: 1.09 ± 0.03
RD; 0.00152 µM
  relative viability: 1.09 ± 0.067
RD; 0.00457 µM
  relative viability: 1.1 ± 0.034
RD; 0.01372 µM
  relative viability: 1.07 ± 0.057
RD; 0.04115 µM
  relative viability: 1.08 ± 0.033
RD; 0.1235 µM
  relative viability: 1.06 ± 0.021
RD; 0.3704 µM
  relative viability: 1.089 ± 0.01
RD; 1.111 µM
  relative viability: 1.08 ± 0.054
RD; 3.333 µM
  relative viability: 1.08 ± 0.041
RD; 10 µM
  relative viability: 1.04 ± 0.015
VA-ES-BJ; 0.00017 µM
  relative viability: 1.05 ± 0.011
VA-ES-BJ; 0.00051 µM
  relative viability: 1.02 ± 0.035
VA-ES-BJ; 0.00152 µM
  relative viability: 1.03 ± 0.014
VA-ES-BJ; 0.00457 µM
  relative viability: 1 ± 0.021
VA-ES-BJ; 0.01372 µM
  relative viability: 0.997 ± 0.033
VA-ES-BJ; 0.04115 µM
  relative viability: 1.01 ± 0.028
VA-ES-BJ; 0.1235 µM
  relative viability: 0.996 ± 0.023
VA-ES-BJ; 0.3704 µM
  relative viability: 1.03 ± 0.023
VA-ES-BJ; 1.111 µM
  relative viability: 0.995 ± 0.018
VA-ES-BJ; 3.333 µM
  relative viability: 0.953 ± 0.034
VA-ES-BJ; 10 µM
  relative viability: 0.936 ± 0.029
HT1080; 0.00017 µM
  relative viability: 1.08 ± 0.038
HT1080; 0.00051 µM
  relative viability: 1.06 ± 0.031
HT1080; 0.00152 µM
  relative viability: 1.058 ± 0.0099
HT1080; 0.00457 µM
  relative viability: 1.04 ± 0.034
HT1080; 0.01372 µM
  relative viability: 1.07 ± 0.05
HT1080; 0.04115 µM
  relative viability: 1.04 ± 0.026
HT1080; 0.1235 µM
  relative viability: 1.03 ± 0.035
HT1080; 0.3704 µM
  relative viability: 1.04 ± 0.03
HT1080; 1.111 µM
  relative viability: 1.054 ± 0.0096
HT1080; 3.333 µM
  relative viability: 1.02 ± 0.026
HT1080; 10 µM
  relative viability: 1.01 ± 0.036
KHOS-NP; 0.00017 µM
  relative viability: 1.114 ± 0.0078
KHOS-NP; 0.00051 µM
  relative viability: 1.11 ± 0.037
KHOS-NP; 0.00152 µM
  relative viability: 1.11 ± 0.036
KHOS-NP; 0.00457 µM
  relative viability: 1.09 ± 0.013
KHOS-NP; 0.01372 µM
  relative viability: 1.11 ± 0.031
KHOS-NP; 0.04115 µM
  relative viability: 1.099 ± 0.01
KHOS-NP; 0.1235 µM
  relative viability: 1.08 ± 0.011
KHOS-NP; 0.3704 µM
  relative viability: 1.07 ± 0.027
KHOS-NP; 1.111 µM
  relative viability: 1.07 ± 0.024
KHOS-NP; 3.333 µM
  relative viability: 1.03 ± 0.028
KHOS-NP; 10 µM
  relative viability: 1.027 ± 0.0046
RD-ES; 0.00017 µM
  relative viability: 0.93 ± 0.063
RD-ES; 0.00051 µM
  relative viability: 0.979 ± 0.037
RD-ES; 0.00152 µM
  relative viability: 0.968 ± 0.029
RD-ES; 0.00457 µM
  relative viability: 0.952 ± 0.027
RD-ES; 0.01372 µM
  relative viability: 0.971 ± 0.035
RD-ES; 0.04115 µM
  relative viability: 0.935 ± 0.02
RD-ES; 0.1235 µM
  relative viability: 0.968 ± 0.04
RD-ES; 0.3704 µM
  relative viability: 0.934 ± 0.05
RD-ES; 1.111 µM
  relative viability: 0.945 ± 0.054
RD-ES; 3.333 µM
  relative viability: 0.917 ± 0.02
RD-ES; 10 µM
  relative viability: 0.928 ± 0.04

## COc1cc2ncnc(Nc3ccc(F)c(Cl)c3)c2cc1OCCCN1CCOCC1 [Gefitinib]
RD; 0.00017 µM
  relative viability: 1.03 ± 0.028
RD; 0.00051 µM
  relative viability: 1.04 ± 0.022
RD; 0.00152 µM
  relative viability: 1.03 ± 0.054
RD; 0.00457 µM
  relative viability: 1.04 ± 0.045
RD; 0.01372 µM
  relative viability: 0.995 ± 0.028
RD; 0.04115 µM
  relative viability: 1.01 ± 0.017
RD; 0.1235 µM
  relative viability: 1.03 ± 0.045
RD; 0.3704 µM
  relative viability: 1.01 ± 0.027
RD; 1.111 µM
  relative viability: 1.05 ± 0.045
RD; 3.333 µM
  relative viability: 1.05 ± 0.065
RD; 10 µM
  relative viability: 0.18 ± 0.018
VA-ES-BJ; 0.00017 µM
  relative viability: 1.05 ± 0.028
VA-ES-BJ; 0.00051 µM
  relative viability: 1.05 ± 0.038
VA-ES-BJ; 0.00152 µM
  relative viability: 1.074 ± 0.0026
VA-ES-BJ; 0.00457 µM
  relative viability: 1.04 ± 0.03
VA-ES-BJ; 0.01372 µM
  relative viability: 1.04 ± 0.048
VA-ES-BJ; 0.04115 µM
  relative viability: 1.05 ± 0.03
VA-ES-BJ; 0.1235 µM
  relative viability: 1.05 ± 0.011
VA-ES-BJ; 0.3704 µM
  relative viability: 1.06 ± 0.023
VA-ES-BJ; 1.111 µM
  relative viability: 1.06 ± 0.033
VA-ES-BJ; 3.333 µM
  relative viability: 1.04 ± 0.042
VA-ES-BJ; 10 µM
  relative viability: 0.75 ± 0.0036
HT1080; 0.00017 µM
  relative viability: 1.05 ± 0.033
HT1080; 0.00051 µM
  relative viability: 1.1 ± 0.024
HT1080; 0.00152 µM
  relative viability: 1.04 ± 0.045
HT1080; 0.00457 µM
  relative viability: 1.07 ± 0.017
HT1080; 0.01372 µM
  relative viability: 1.06 ± 0.039
HT1080; 0.04115 µM
  relative viability: 1.03 ± 0.046
HT1080; 0.1235 µM
  relative viability: 1.047 ± 0.0077
HT1080; 0.3704 µM
  relative viability: 1.07 ± 0.039
HT1080; 1.111 µM
  relative viability: 1.05 ± 0.061
HT1080; 3.333 µM
  relative viability: 1.04 ± 0.023
HT1080; 10 µM
  relative viability: 0.483 ± 0.064
KHOS-NP; 0.00017 µM
  relative viability: 1.09 ± 0.018
KHOS-NP; 0.00051 µM
  relative viability: 1.08 ± 0.028
KHOS-NP; 0.00152 µM
  relative viability: 1.08 ± 0.042
KHOS-NP; 0.00457 µM
  relative viability: 1.08 ± 0.034
KHOS-NP; 0.01372 µM
  relative viability: 1.096 ± 0.01
KHOS-NP; 0.04115 µM
  relative viability: 1.07 ± 0.019
KHOS-NP; 0.1235 µM
  relative viability: 1.06 ± 0.038
KHOS-NP; 0.3704 µM
  relative viability: 1.06 ± 0.015
KHOS-NP; 1.111 µM
  relative viability: 1.08 ± 0.018
KHOS-NP; 3.333 µM
  relative viability: 1.08 ± 0.033
KHOS-NP; 10 µM
  relative viability: 0.898 ± 0.036
RD-ES; 0.00017 µM
  relative viability: 0.944 ± 0.059
RD-ES; 0.00051 µM
  relative viability: 0.967 ± 0.041
RD-ES; 0.00152 µM
  relative viability: 0.954 ± 0.036
RD-ES; 0.00457 µM
  relative viability: 0.965 ± 0.04
RD-ES; 0.01372 µM
  relative viability: 0.97 ± 0.018
RD-ES; 0.04115 µM
  relative viability: 0.978 ± 0.04
RD-ES; 0.1235 µM
  relative viability: 0.973 ± 0.042
RD-ES; 0.3704 µM
  relative viability: 0.987 ± 0.051
RD-ES; 1.111 µM
  relative viability: 0.962 ± 0.032
RD-ES; 3.333 µM
  relative viability: 0.844 ± 0.017
RD-ES; 10 µM
  relative viability: 0.464 ± 0.013
